Measured values taken from ChEMBL document CHEMBL1275577, “Study of the in vitro activities of rifaximin and comparator agents against 536 anaerobic intestinal bacteria from the perspective of potential utility in pathology involving bowel flora” (Antimicrob Agents Chemother, 2009).

Experiments:
Type in all cases: functional
[1] = test system: Parabacteroides distasonis; experiment: Antimicrobial activity against Parabacteroides distasonis by Wadsworth agar dilution method
[2] = test system: Desulfovibrio fairfieldensis; experiment: Antimicrobial activity against Desulfovibrio fairfieldensis by Wadsworth agar dilution method
Porphyromonas uenonis = experiment: Antimicrobial activity against Porphyromonas uenonis by Wadsworth agar dilution method
Prevotella bivia = experiment: Antimicrobial activity against Prevotella bivia by Wadsworth agar dilution method
Clostridioides difficile = experiment: Antimicrobial activity against Clostridium difficile by Wadsworth agar dilution method
Clostridium hathewayi = experiment: Antimicrobial activity against Clostridium hathewayi by Wadsworth agar dilution method; details: Hungatella hathewayi
Flavonifractor plautii = experiment: Antimicrobial activity against Clostridium orbiscindens by Wadsworth agar dilution method
Clostridium beijerinckii = experiment: Antimicrobial activity against Clostridium beijerinckii by Wadsworth agar dilution method
Clostridium bolteae = experiment: Antimicrobial activity against Clostridium bolteae by Wadsworth agar dilution method; details: Enterocloster bolteae
Clostridium cadaveris = experiment: Antimicrobial activity against Clostridium cadaveris by Wadsworth agar dilution method
Thomasclavelia ramosa = experiment: Antimicrobial activity against Clostridium ramosum by Wadsworth agar dilution method
Clostridium scindens = experiment: Antimicrobial activity against Clostridium scindens by Wadsworth agar dilution method
[3] = Antimicrobial activity against Bifidobacterium pseudocatenulatum by Wadsworth agar dilution method
[4] = test system: Catenibacterium mitsuokai; experiment: Antimicrobial activity against Catenibacterium mitsuokai by Wadsworth agar dilution method
Eggerthella lenta = experiment: Antimicrobial activity against Eggerthella lenta by Wadsworth agar dilution method
[5] = test system: Limosilactobacillus reuteri; experiment: Antimicrobial activity against Lactobacillus reuteri by Wadsworth agar dilution method
Propionibacterium avidum = experiment: Antimicrobial activity against Propionibacterium avidum by Wadsworth agar dilution method; details: Cutibacterium avidum
[6] = test system: Propionibacterium propionicum; experiment: Antimicrobial activity against Propionibacterium propionicum by Wadsworth agar dilution method; details: Arachnia propionica
Finegoldia magna = experiment: Antimicrobial activity against Finegoldia magna by Wadsworth agar dilution method
Bacteroides uniformis = experiment: Antimicrobial activity against Bacteroides uniformis by Wadsworth agar dilution method in presence of beta-lactamase inhibitor Sulbactam
Desulfovibrio piger = experiment: Antimicrobial activity against Desulfovibrio piger by Wadsworth agar dilution method in presence of beta-lactamase inhibitor Sulbactam
Fusobacterium nucleatum = experiment: Antimicrobial activity against Fusobacterium nucleatum by Wadsworth agar dilution method in presence of beta-lactamase inhibitor Sulbactam
Fusobacterium sp. = experiment: Antimicrobial activity against Fusobacterium sp. by Wadsworth agar dilution method in presence of beta-lactamase inhibitor Sulbactam
[7] = test system: Porphyromonas asaccharolytica; experiment: Antimicrobial activity against Porphyromonas asaccharolyticus by Wadsworth agar dilution method in presence of beta-lactamase inhibitor Sulbactam
Prevotella corporis = experiment: Antimicrobial activity against Prevotella corporis by Wadsworth agar dilution method in presence of beta-lactamase inhibitor Sulbactam
Clostridium cocleatum = experiment: Antimicrobial activity against Clostridium cocleatum by Wadsworth agar dilution method in presence of beta-lactamase inhibitor Sulbactam; details: Thomasclavelia cocleata
Clostridium glycolicum = experiment: Antimicrobial activity against Clostridium glycolicum by Wadsworth agar dilution method in presence of beta-lactamase inhibitor Sulbactam; details: Terrisporobacter glycolicus
[8] = test system: Clostridium paraputrificum; experiment: Antimicrobial activity against Clostridium paraputrificum by Wadsworth agar dilution method in presence of beta-lactamase inhibitor Sulbactam
[9] = test system: Paeniclostridium sordellii; experiment: Antimicrobial activity against Clostridium sordellii by Wadsworth agar dilution method in presence of beta-lactamase inhibitor Sulbactam; details: Paraclostridium sordellii
Clostridium sp. = experiment: Antimicrobial activity against Clostridium sp. by Wadsworth agar dilution method in presence of beta-lactamase inhibitor Sulbactam
Clostridium spiroforme = experiment: Antimicrobial activity against Clostridium spiroforme by Wadsworth agar dilution method in presence of beta-lactamase inhibitor Sulbactam; details: Thomasclavelia spiroformis
[10] = test system: Catenibacterium mitsuokai; experiment: Antimicrobial activity against Catenibacterium mitsuokai by Wadsworth agar dilution method in presence of beta-lactamase inhibitor Sulbactam
Collinsella aerofaciens = experiment: Antimicrobial activity against Colinsella aerofaciens by Wadsworth agar dilution method in presence of beta-lactamase inhibitor Sulbactam
Eubacterium cylindroides = experiment: Antimicrobial activity against Eubacterium cylindroides by Wadsworth agar dilution method in presence of beta-lactamase inhibitor Sulbactam; details: Faecalitalea cylindroides
Eubacterium saburreum = experiment: Antimicrobial activity against Eubacterium saburreum by Wadsworth agar dilution method in presence of beta-lactamase inhibitor Sulbactam; details: Lachnoanaerobaculum saburreum
[11] = test system: Lactobacillus catenaformis; experiment: Antimicrobial activity against Lactobacillus catenaformis by Wadsworth agar dilution method in presence of beta-lactamase inhibitor Sulbactam; details: Eggerthia catenaformis
[12] = test system: Limosilactobacillus reuteri; experiment: Antimicrobial activity against Lactobacillus reuteri by Wadsworth agar dilution method in presence of beta-lactamase inhibitor Sulbactam
[13] = test system: Peptostreptococcus anaerobius; experiment: Antimicrobial activity against Peptostreptococcus anaerobius by Wadsworth agar dilution method in presence of beta-lactamase inhibitor Sulbactam

CN[C@H](CC(C)C)C(=O)N[C@H]1C(=O)N[C@@H](CC(N)=O)C(=O)N[C@H]2C(=O)N[C@H]3C(=O)N[C@H](C(=O)N[C@H](C(=O)O)c4cc(O)cc(O)c4-c4cc3ccc4O)[C@H](O)c3ccc(c(Cl)c3)Oc3cc2cc(c3O[C@@H]2O[C@H](CO)[C@@H](O)[C@H](O)[C@H]2O[C@H]2C[C@](C)(N)[C@H](O)[C@H](C)O2)Oc2ccc(cc2Cl)[C@H]1O [VANCOMYCIN]
64 µg/mL: MIC90 [3] | MIC90 [4] | MIC90 (Eggerthella lenta) | MIC90 [5] | MIC90 (Propionibacterium avidum) | MIC90 [6]
0.5 µg/mL: MIC50 (Finegoldia magna)
8 µg/mL: MIC90 (Porphyromonas uenonis) | MIC50 (Flavonifractor plautii) | MIC90 (Flavonifractor plautii)
2 µg/mL: MIC90 (Clostridioides difficile)
4 µg/mL: MIC50 (Porphyromonas uenonis) | MIC90 (Clostridium beijerinckii) | MIC90 (Clostridium bolteae) | MIC90 (Clostridium cadaveris) | MIC90 (Thomasclavelia ramosa) | MIC90 (Clostridium scindens)
> 1020 µg/mL: MIC50 [2] | MIC90 [2]
1 µg/mL: MIC (Clostridioides difficile) | MIC50 (Clostridioides difficile) | MIC50 (Clostridium hathewayi) | MIC90 (Clostridium hathewayi) | MIC50 (Clostridium beijerinckii) | MIC50 (Clostridium bolteae) | MIC50 (Clostridium cadaveris) | MIC50 (Thomasclavelia ramosa) | MIC50 (Clostridium scindens) | MIC50 [3] | MIC50 [4] | MIC50 (Eggerthella lenta) | MIC50 [5] | MIC50 (Propionibacterium avidum) | MIC50 [6] | MIC90 (Finegoldia magna)
128 µg/mL: MIC50 [1] | MIC90 [1] | MIC50 (Prevotella bivia)
256 µg/mL: MIC90 (Prevotella bivia)

CC(=O)Oc1ccccc1C(=O)Nc1ncc([N+](=O)[O-])s1 [NITAZOXANIDE]
0.25 µg/mL: MIC (Clostridioides difficile) | MIC50 (Clostridioides difficile) | MIC (Flavonifractor plautii) | MIC50 (Flavonifractor plautii)
2 µg/mL: MIC50 [3] | MIC50 [4] | MIC50 (Eggerthella lenta) | MIC50 [5] | MIC50 (Propionibacterium avidum) | MIC50 [6]
0.5 µg/mL: MIC50 (Porphyromonas uenonis) | MIC90 (Clostridioides difficile) | MIC50 (Clostridium hathewayi) | MIC90 (Clostridium hathewayi) | MIC90 (Flavonifractor plautii) | MIC50 (Clostridium beijerinckii) | MIC50 (Clostridium bolteae) | MIC50 (Clostridium cadaveris) | MIC50 (Thomasclavelia ramosa) | MIC50 (Clostridium scindens) | MIC50 (Finegoldia magna)
1 µg/mL: MIC50 [2] | MIC90 (Porphyromonas uenonis) | MIC90 (Finegoldia magna)
32 µg/mL: MIC90 [3] | MIC90 [4] | MIC90 (Eggerthella lenta) | MIC90 [5] | MIC90 (Propionibacterium avidum) | MIC90 [6]
8 µg/mL: MIC90 (Prevotella bivia)
4 µg/mL: MIC50 [1] | MIC90 [1] | MIC90 [2] | MIC50 (Prevotella bivia) | MIC90 (Clostridium beijerinckii) | MIC90 (Clostridium bolteae) | MIC90 (Clostridium cadaveris) | MIC90 (Thomasclavelia ramosa) | MIC90 (Clostridium scindens)

CC1(C)S[C@@H]2[C@H](NC(=O)[C@H](N)c3ccccc3)C(=O)N2[C@H]1C(=O)O [AMPICILLIN]
32 µg/mL: MIC90 (Desulfovibrio piger)
1 µg/mL: MIC50 (Fusobacterium sp.) | MIC90 (Clostridium cocleatum) | MIC90 (Clostridium glycolicum) | MIC90 [8] | MIC90 [9] | MIC90 (Clostridium sp.) | MIC90 (Clostridium spiroforme)
0.5 µg/mL: MIC90 [7] | MIC50 (Prevotella corporis)
0.25 µg/mL: MIC50 (Fusobacterium nucleatum) | MIC90 (Fusobacterium nucleatum) | MIC [7] | MIC50 [7] | MIC (Clostridium cocleatum) | MIC50 (Clostridium cocleatum) | MIC (Clostridium glycolicum) | MIC50 (Clostridium glycolicum) | MIC [8] | MIC50 [8] | MIC [9] | MIC50 [9] | MIC (Clostridium sp.) | MIC50 (Clostridium sp.) | MIC (Clostridium spiroforme) | MIC50 (Clostridium spiroforme) | MIC [10] | MIC50 [10] | MIC (Collinsella aerofaciens) | MIC50 (Collinsella aerofaciens) | MIC (Eubacterium cylindroides) | MIC50 (Eubacterium cylindroides) | MIC (Eubacterium saburreum) | MIC50 (Eubacterium saburreum) | MIC [11] | MIC50 [11] | MIC [12] | MIC50 [12] | MIC [13] | MIC50 [13]
4 µg/mL: MIC50 (Desulfovibrio piger) | MIC90 (Fusobacterium sp.) | MIC90 (Prevotella corporis)
2 µg/mL: MIC50 (Bacteroides uniformis) | MIC90 [10] | MIC90 (Collinsella aerofaciens) | MIC90 (Eubacterium cylindroides) | MIC90 (Eubacterium saburreum) | MIC90 [11] | MIC90 [12] | MIC90 [13]
16 µg/mL: MIC90 (Bacteroides uniformis)
